Measured values from patent publication US20140248212A1, “NON-IMMUNOGENIC POSITRON EMISSION TOMOGRAPHY REPORTER GENE SYSTEMS” (THE REGENTS OF THE UNIVERSITY OF CALIFORNIA, priority 2011, published 2014).

Tests used:
[1] = Biodistribution of PET reporter probes in mice (microPET/CT); type: in vivo, C57/BL6 mice
Procedure: To identify candidate PRPs, eight nucleoside analogs (FIG. 7A) were synthesized that were amenable to ^18F labeling (the first criterion for PRPs). To identify PRP candidates with rapid clearance from normal tissues and low overall background (second criterion for PRGs), biodistribution studies in mice were performed. It was observed that natural (D) nucleosides had higher background than non-natural (L) nucleoside analogs. […] The next step was to identify a human nucleoside kinase that phosphorylates L-[^18F]FMAU and L-[^18F]FEAU, and can be converted into a new PRG that matches four criteria:
Initially, a group of nucleoside analogs amenable to fluorine-18 labeling were identified. These PET tracers, 5 of which were novel, were then screened to determine their biodistribution in C57/BL6 mice (n=3 for each PET tracer) through dynamic microPET scans. […] Rational design is utilized to introduce mutations into human nucleoside kinase thymidine kinase 2 (TK2) to improve the affinity of the kinase for the top candidate probe. The sensitivity and specificity of the novel PET reporter probe/gene pair was then determined in vitro and in vivo using a murine cancer model.
(§1) Animal studies were approved and carried out according to specific guidelines. C57/BL6 mice were injected with the indicated probe and underwent micro-PET/CT analyses at 1- and 3-h post probe injection (Inveon, Siemens Medical Solutions USA Inc.; microCAT; Imtek Inc.). For tumor imaging studies, SCID mice were injected subcutaneously on day −7 in the right and left flanks with 1×10^6 L1210-PRG-expressing cells in 50% v/v phosphate-buffered saline and 50% v/v Matrigel™ (BD Biosciences). For imaging experiments, mice were kept warm and under gas anesthesia (2% v/v isoflurane) and were injected intravenously with 200 μCi of ^18F-labeled probes. A 3-h interval was allowed between probe administration and microPET/CT scanning Static microPET images were acquired for 600 s. Image data were evaluated in three-dimensional histograms and reconstructed with a zoom factor of 2.1 using three-dimensional ordered set expectation maximization (OSEM) with 2 iterations followed by MAP (maximum a posteriori) reconstruction with 18 iterations (beta=0.1). Images were analyzed using OsiriX Imaging Software Version 3.8.

[2] = tested on: L1210 tumors expressing TK2-N93D; test: microPET/CT of SCID mice bearing L1210-PRG tumors (TK2-N93D); type: in vivo; conditions: 3 hrs post-injection, FIG. 10D
Excerpt: (§2) To compare TK2, TK2-N93D and HSV1-sr39tk in vivo, PRG-expressing L1210 cells were implanted subcutaneously in SCID mice that were then scanned with L-[^18F]FMAU (FIG. 10A) and [^18F]FHBG (FIG. 10C) on consecutive days. […] Signals obtained with sr39tk were slightly higher than those obtained with the human TK2-N93D PRG (the difference was not statistically significant). […] L-[^18F]FMAU accumulation in TK2-N93D transduced tumors was ˜20 times higher than the accumulation in tumors transduced with the control (eYFP only) vector. While this ratio is higher than the 6.67 ratio reported for WT TK2 as a PRG with D-[^18F]FEAU as the PRP (see, e.g. Ponomarev, V., et al. J Nucl Med 48:819-826, 2007), the HSV1-sr39tk/[^18F]FHBG combination still outperforms the TK2-N93D/L-[^18F]FMAU combination by ˜2-fold. The significance of the 2-fold difference for the sensitivity of the new TK2-N93D PRG can be further investigated in the animal models discussed below (see, e.g. Gerth, M. L., et al. Biochem Biophys Res Commun 354:802-807, 2007; Liu, L., et al. Nucleic Acids Res 37:4472-4481, 2009; Iyidogan, P., et al. Biochemistry 47:4711-4720, 2008; Lutz, S., et al. Chimia (Aarau) 63:737-744 2009).
as §1

[3] = tested on: L1210 tumors expressing HSV1-sr39tk; test: microPET/CT of SCID mice bearing L1210-PRG tumors (HSV1-sr39tk); type: in vivo
Excerpt: as §2, with “The significance of the 2-fold difference for the sensitivity of the new TK2-N93D PRG can be further investigated in the animal models discussed below (see, e.g. Gerth, M. L., et al. Biochem Biophys Res Commun 354:802-807, 2007; Liu, L., et al. Nucleic Acids Res 37:4472-4481, 2009; Iyidogan, P., et al. Biochemistry 47:4711-4720, 2008; Lutz, S., et al. Chimia (Aarau) 63:737-744 2009).” left out
Animal studies were approved and carried out according to specific guidelines. […] Image data were evaluated in three-dimensional histograms and reconstructed with a zoom factor of 2.1 using three-dimensional ordered set expectation maximization (OSEM) with 2 iterations followed by MAP (maximum a posteriori) reconstruction with 18 iterations (beta=0.1). Images were analyzed using OsiriX Imaging Software Version 3.8. […]

[4] = Human whole-body PET/CT biodistribution of PET reporter probes; type: in vivo
Excerpt: All studies involving human volunteers were approved. A healthy person and a healthy volunteer were recruited for the L-^18F-FMAU biodistribution study. Each volunteer received a bolus intravenous injection of ˜56 MBq (1.5 mCi) sterile L-^18F-FMAU and had four consecutive whole-body (starting from just above the head to above the knees, 6 bed positions, 5-min scan at each bed position) PET scans (Biograph 64, Siemens), with the first scan starting shortly after intravenous injection of L-^18F-FMAU. A low dose CT scan was also obtained for attenuation correction. Volunteers urinated after all scans had been performed. The region of interest analysis was performed to measure mean standard uptake values of L-^18F-FMAU in major organs/tissues. To illustrate the biodistribution of ^18F-FHBG, unpublished scan from a previous study (see, e.g. Yaghoubi, S. S., et al. (2009) Nat. Clin. Pract. Oncol. 6, 53-58) was used.

[5] = tested on: L1210 tumors expressing WT TK2; test: microPET/CT of SCID mice bearing L1210-PRG tumors (WT TK2); type: in vivo; conditions: 3 hrs post-injection, FIG. 10D
Excerpt: as §2, with “The significance of the 2-fold difference for the sensitivity of the new TK2-N93D PRG can be further investigated in the animal models discussed below (see, e.g. Gerth, M. L., et al. Biochem Biophys Res Commun 354:802-807, 2007; Liu, L., et al. Nucleic Acids Res 37:4472-4481, 2009; Iyidogan, P., et al. Biochemistry 47:4711-4720, 2008; Lutz, S., et al. Chimia (Aarau) 63:737-744 2009).” left out
Animal studies were approved and carried out according to specific guidelines. […] Image data were evaluated in three-dimensional histograms and reconstructed with a zoom factor of 2.1 using three-dimensional ordered set expectation maximization (OSEM) with 2 iterations followed by MAP (maximum a posteriori) reconstruction with 18 iterations (beta=0.1). Images were analyzed using OsiriX Imaging Software Version 3.8.

WT TK2 = conditions: reported by Ponomarev et al. 2007; cited from earlier work
thymidine kinase 2 (TK2) = target: T1, thymidine kinase 2 (TK2) (Homo sapiens, UniProt O00142); conditions: cited from earlier work
T1 sequence (O00142 34-265): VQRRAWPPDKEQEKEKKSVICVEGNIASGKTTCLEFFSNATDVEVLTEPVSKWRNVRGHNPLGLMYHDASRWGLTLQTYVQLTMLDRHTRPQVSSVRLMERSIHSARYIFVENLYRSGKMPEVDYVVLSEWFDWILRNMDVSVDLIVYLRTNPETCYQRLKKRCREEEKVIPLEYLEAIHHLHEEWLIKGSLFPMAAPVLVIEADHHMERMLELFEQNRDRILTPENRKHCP

[6] = accumulation in liver, small intestine, kidneys, urinary bladder only; cited from earlier work

Nc1nc2c(ncn2CCC(CO)C[18F])c(=O)[nH]1 (stereo not shown) [^18F-FHBG, 9-[4-[^18F]fluoro-3-(hydroxymethyl)butyl]guanine, reference compound]
accumulation in the liver ([1]; 3-h time point): neither probe showed any accumulation | accumulation in the gallbladder ([1]; 3 h after administration): 7.45±5.31 % injected dose/g | accumulation in the gallbladder, 18F-FHBG relative to L-18F-FMAU ([1]; 3 h after administration): 4 times | retention in the abdominal cavity, 18F-FHBG relative to L-18F-FMAU ([1]; 3 h after administration): three times higher | retention in the thoracic cavity ([1]; 3 h after administration): very low retention | signals in the GI tract ([1]; 3 h after administration): detected throughout the GI tract | abdominal background ([1]; mice, compared with [18F]FHBG): high abdominal background | [18F]FHBG accumulation in tumors [2]: Neither WT TK2 nor TK2-N93D expressing tumors accumulated detectable amounts | probe uptake in L1210 tumors ([3]; 18F-FHBG, 3 h post-injection): 24.1±6.2 % injected dose/g | HSV1-sr39tk/[18F]FHBG combination outperforms TK2-N93D/L-[18F]FMAU combination ([3]; tumor to control ratio): ~2 fold | tissues with relatively high signals ([4]; 2 h post-administration): relatively high signals were observed in liver, kidneys, gall bladder, bladder, and the GI tract | tracer background within abdomen and pelvis ([4]; whole-body PET/CT, human): high abdominal background | [18F]FHBG accumulation in tumors [5]: Neither WT TK2 nor TK2-N93D expressing tumors accumulated detectable amounts

CCc1cn([C@@H]2O[C@H](CO)[C@@H](O)[C@@H]2F)c(=O)[nH]c1=O [D-[^18F]FEAU, 2′-deoxy-2′-^18F-5-ethyl-1-β-D-arabinofuranosyluracil]
ratio of accumulation, PRG versus control (WT TK2): 6.67 | activity of kinase towards nucleoside analog (thymidine kinase 2 (TK2)): active towards L-FMAU, D- | biodistribution as a candidate PRP [6]: favorable biodistribution
